Tests used:
mICE [1] = target: T1, mICE (Mus musculus, UniProt P29452); assay: Fluorescence enzyme assay, IC50 determination, ICE; assay type: biochemical; settings: recombinant enzyme, substrate Acetyl-Tyr-Val-Ala-Asp-AMC, 30 min preincubation, room temperature
T1 sequence (P29452 123-296 limits assumed): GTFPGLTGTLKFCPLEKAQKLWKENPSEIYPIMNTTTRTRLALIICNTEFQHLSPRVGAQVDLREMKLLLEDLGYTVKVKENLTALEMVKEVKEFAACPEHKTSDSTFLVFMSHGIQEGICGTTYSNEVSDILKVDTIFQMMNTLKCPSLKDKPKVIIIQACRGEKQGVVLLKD
T1 sequence (P29452 315-402 limits assumed): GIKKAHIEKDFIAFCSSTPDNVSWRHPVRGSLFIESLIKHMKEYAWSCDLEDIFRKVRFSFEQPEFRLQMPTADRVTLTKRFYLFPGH
Method: (§1) Fluorescence enzyme assays detecting the activity of the compounds of Formula 1 utilizing the recombinant ICE and CPP32 enzymes were performed essentially according to Thornberry et al. (Nature, 356:768:774 (1992)) and Nicholson et al. (Nature, 376:37-43 (1995)) respectively, (herein incorporated by reference) in 96 well microtiter plates. The substrate is Acetyl-Tyr-Val-Ala-Asp-amino-4-methylcoumarin (AMC) for the ICE assay and Acetyl-Asp-Glu-Val-Asp-amino-4-methylcoumarin for the CPP32, Mch2, Mch3 and Mch5 assays. Enzyme reactions were run in ICE buffer (25 mM HEPES, 1 mM EDTA, 0.1% CHAPS, 10% sucrose, pH 7.5) containing 2 mM DTT at room temperature in duplicate. The assays were performed by mixing the following components:
(§2) 50 μL ICE, Mch2, Mch5, CPP32 (18.8, 38, 8.1 and 0.153 nM concentrations, respectively) or Mch3 (1 unit) enzyme in ICE buffer containing either 8.0 (ICE, Mch2, Mch3, CPP32) or 20 (Mch5) mM DTT;
(§3) 50 μL compound of Formula 1 or ICE buffer (control); and
(§4) 100 μL of 20 μM substrate.
(§5) The enzyme and the compound of Formula 1 to be assayed were allowed to preincubate in the microtitre plate wells for 30 minutes at room temperature prior to the addition of substrate to initiate the reaction. Fluorescent AMC product formation was monitored for one hour at room temperature by measuring the fluorescence emission at 460 nm using an excitation wavelength of 360 nm. The fluorescence change in duplicate (control) wells were averaged and the mean values were plotted as a function of inhibitor concentration to determine the inhibitor concentration producing 50% inhibition (IC50).
(§6) The reference compound for this assay was Cbz-ValAlaAsp-H and the values are denoted in Table 1 as “Reference”.

CPP32 [2] = target: T2, CPP32 (Homo sapiens, UniProt P42574); assay: Fluorescence enzyme assay, IC50 determination, CPP32; assay type: biochemical; settings: recombinant enzyme, substrate Acetyl-Asp-Glu-Val-Asp-AMC, 30 min preincubation, room temperature
T2 sequence (P42574 29-175 limits assumed): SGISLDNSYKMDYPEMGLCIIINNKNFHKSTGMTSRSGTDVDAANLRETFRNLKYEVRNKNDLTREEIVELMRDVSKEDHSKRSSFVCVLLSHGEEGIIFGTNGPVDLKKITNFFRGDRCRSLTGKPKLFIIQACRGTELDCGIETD
T2 sequence (P42574 176-277 limits assumed): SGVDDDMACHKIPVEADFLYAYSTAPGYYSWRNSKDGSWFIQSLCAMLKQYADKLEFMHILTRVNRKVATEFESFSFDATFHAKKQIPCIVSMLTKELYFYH
Method: as §1, §2, §3, §4, §5, §6

MCH-2 [3] = target: T3, MCH-2 (Homo sapiens, UniProt P55212); assay: Fluorescence enzyme assay, IC50 determination, Mch2; assay type: biochemical; settings: substrate Acetyl-Asp-Glu-Val-Asp-AMC, 30 min preincubation, room temperature
T3 sequence (P55212 24-179 limits assumed): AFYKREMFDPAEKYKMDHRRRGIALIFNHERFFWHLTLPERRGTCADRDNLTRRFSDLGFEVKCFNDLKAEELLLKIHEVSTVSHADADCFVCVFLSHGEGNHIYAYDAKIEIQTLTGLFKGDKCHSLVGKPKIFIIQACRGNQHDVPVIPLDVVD
T3 sequence (P55212 194-293 limits assumed): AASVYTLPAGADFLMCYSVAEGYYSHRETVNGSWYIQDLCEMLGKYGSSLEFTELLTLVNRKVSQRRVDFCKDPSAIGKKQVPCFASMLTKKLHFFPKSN
Method: as §1, §2, §3, §4, §5, §6

MCH-3 = target: T4, MCH-3 (Homo sapiens, UniProt P55210); assay: Fluorescence enzyme assay, IC50 determination, Mch3; assay type: biochemical; settings: substrate Acetyl-Asp-Glu-Val-Asp-AMC, 30 min preincubation, room temperature
T4 sequence (P55210 24-198 limits assumed): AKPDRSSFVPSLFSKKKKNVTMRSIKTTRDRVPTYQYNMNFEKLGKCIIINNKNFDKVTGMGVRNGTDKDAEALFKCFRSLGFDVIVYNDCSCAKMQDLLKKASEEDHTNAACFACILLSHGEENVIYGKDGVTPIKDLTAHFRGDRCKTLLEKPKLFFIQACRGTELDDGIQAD
T4 sequence (P55210 207-303 limits assumed): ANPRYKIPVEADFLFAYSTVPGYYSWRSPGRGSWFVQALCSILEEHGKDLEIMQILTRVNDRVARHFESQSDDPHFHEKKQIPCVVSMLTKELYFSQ
Method: as §1, §2, §3, §4, §5, §6

MCH-5 [4] = target: T5, MCH-5 (Homo sapiens, UniProt Q14790); assay: Fluorescence enzyme assay, IC50 determination, Mch5; assay type: biochemical; settings: substrate Acetyl-Asp-Glu-Val-Asp-AMC, 30 min preincubation, room temperature
T5 sequence (Q14790 217-374 limits assumed, species assumed): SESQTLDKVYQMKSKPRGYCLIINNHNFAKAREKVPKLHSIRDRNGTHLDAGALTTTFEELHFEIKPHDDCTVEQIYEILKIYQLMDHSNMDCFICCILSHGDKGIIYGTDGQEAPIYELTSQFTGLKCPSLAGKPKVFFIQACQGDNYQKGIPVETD
T5 sequence (Q14790 385-479 limits assumed, species assumed): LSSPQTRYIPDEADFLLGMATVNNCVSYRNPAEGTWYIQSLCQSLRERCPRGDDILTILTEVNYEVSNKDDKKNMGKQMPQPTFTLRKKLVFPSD
Method: as §1, §2, §3, §4, §5, §6

mICE [5] = target: T1, mICE; assay: Continuous assay for Ki and k3 of irreversible inhibitors, ICE; assay type: biochemical
From the text: (§7) B. Determination of the dissociation constant Ki and irreversible rate constant k3 for irreversible inhibitors
(§8) For the irreversible inhibition of a ICE/ced-3 Family Protease enzyme with a competitive irreversible inhibitor; using the model represented by the following formulas: [drawing 14]
(§9) The product formation at time t may be expressed as: [formula]
(§10) where E, I, EI and E-I denote the active enzyme, inhibitor, non-covalent enzyme-inhibitor complex and covalent enzyme-inhibitor adduct, respectively. The Ki value is the overall dissociation constant of the reversible binding steps, and k3 is the irreversible rate constant. The [S] and Ks values are the substate concentration and dissociation constant of the substrate bound to the enzyme, respectively. [E]^T is the total enzyme concentration.
(§11) The above equations were used to determine the Ki and k3 values of a given inhibitor bound to a ICE/ced-3 family protease. Thus, a continuous assay was run for sixty minutes at various concentrations of the inhibitor and the substrate. The assay was formulated essentially the same as described above for generating the data in Table 1, except that the reaction was initiated by adding the enzyme to the substrate-inhibitor mixture. […]

CPP32 [6] = target: T2, CPP32; assay: Continuous assay for Ki and k3 of irreversible inhibitors, CPP32; assay type: biochemical
From the text: as §7, §8, §9, §10, §11

MCH-2 [7] = target: T3, MCH-2; assay: Continuous assay for Ki and k3 of irreversible inhibitors, Mch2; assay type: biochemical
From the text: as §7, §8, §9, §10, §11

MCH-5 [8] = target: T5, MCH-5; assay: Continuous assay for Ki and k3 of irreversible inhibitors, Mch5; assay type: biochemical
From the text: as §7, §8, §9, §10, §11

[9] = continuous assay 60 min, reaction initiated by adding enzyme

SMILES	IC50 (mICE [1]) [nM]	IC50 (CPP32 [2]) [nM]	IC50 (MCH-2 [3]) [nM]	IC50 (MCH-3) [nM]	IC50 (MCH-5 [4]) [nM]	melting point	k3/Ki (mICE [5]; Example 31) [M⁻¹ s⁻¹]	Ki (mICE [5]; [9]) [nM]	k3/Ki (CPP32 [6]; Example 31) [M⁻¹ s⁻¹]	Ki (CPP32 [6]; [9]) [nM]	k3/Ki (MCH-2 [7]; Example 31) [M⁻¹ s⁻¹]	Ki (MCH-2 [7]; [9]) [nM]	k3/Ki (MCH-5 [8]; Example 31) [M⁻¹ s⁻¹]	Ki (MCH-5 [8]; [9]) [nM]
O=C(O)CCC(=O)N[C@H]1CCc2cccc3c2N(C1=O)[C@H](C(=O)N[C@H]1CC(=O)OC1O)C3 (stereo partly drawn) [Example 10]	571	245	1810	2830	7980	145 to 160 °C (dec.)								
O=C(O)C[C@H](NC(=O)[C@@H]1Cc2cccc3c2N1C(=O)[C@@H](NC(=O)OCc1ccccc1)CC3)C(=O)COP(=O)(c1ccccc1)c1ccccc1 [Example 34, 3-[(2S-cis)-[5-Benzyloxycarbonylamino-1,2,3,4,5,6,7-hexahydro-4-oxoazapino[3,2,1-hi]indole-2-carbonyl]amino]5-(diphenylphosphinyl) oxy-4-oxo-pentanoic acid]						109 to 111 °C (dec.)								
O=C(CCc1ccccc1)N[C@H]1CCc2cccc3c2N(C1=O)[C@H](C(=O)N[C@H]1CC(=O)OC1O)C3 (stereo partly drawn) [Example 16]	45	780	> 10000	32600	18700	78 to 81 °C								
O=C1CC(NC(=O)C2CCc3cccc4c3N2C(=O)C(NC(=O)OCc2ccccc2)CC4)C(O)O1 (mixture of isomers) [Example 28, (3R,S-cis)-6-Benzyloxycarbonylamino-5-oxo-2,3,4,5,6,7,8-hexahydro-1H-azepino[3,2,1-hi]quinoline-3-carbonyl)-amino]-4-oxo-butanoic acid]	26	437	32000	1110	2060	120 to 123 °C (dec.)								
O=C(O)CC(NC(=O)[C@@H]1Cc2cccc3c2N1C(=O)[C@@H](NC(=O)OCc1ccccc1)CC3)C(=O)CF (stereo partly drawn) [Example 31]							1.2e+07	0.5	960000	12	25000	33	98000	22
O=C1C[C@H](NC(=O)[C@@H]2Cc3cccc4c3N2C(=O)[C@@H](NC(=O)c2cccc3ccccc23)CC4)C(O)O1 (stereo partly drawn) [Example 22]	10	2910	> 50000	12300	1090	202 to 203 °C (dec.)								
CC(=O)N[C@H]1CCc2cccc3c2N(C1=O)[C@H](C(=O)N[C@H]1CC(=O)OC1O)C3 (stereo partly drawn) [Example 19]	3070	3870	> 10000	> 50000	> 50000	210 to 215 °C (dec.)								
O=C(O)C[C@H](NC(=O)OCc1ccccc1)C(=O)N[C@H]1CCc2cccc3c2N(C1=O)[C@H](C(=O)N[C@H]1CC(=O)OC1O)C3 (stereo partly drawn) [Example 13]	96	0.52		84	1190	140 to 144 °C (dec.)								

Further lines, results first:

IC50 (mICE [1]) [nM]	IC50 (CPP32 [2]) [nM]	IC50 (MCH-2 [3]) [nM]	IC50 (MCH-3) [nM]	IC50 (MCH-5 [4]) [nM]	melting point	k3/Ki (mICE [5]; Example 31) [M⁻¹ s⁻¹]	Ki (mICE [5]; [9]) [nM]	k3/Ki (CPP32 [6]; Example 31) [M⁻¹ s⁻¹]	Ki (CPP32 [6]; [9]) [nM]	k3/Ki (MCH-2 [7]; Example 31) [M⁻¹ s⁻¹]	Ki (MCH-2 [7]; [9]) [nM]	k3/Ki (MCH-5 [8]; Example 31) [M⁻¹ s⁻¹]	Ki (MCH-5 [8]; [9]) [nM]	SMILES
					103 to 105 °C (dec.)									CC(C)(C)OC(=O)C[C@@H](/C=N/NC(N)=O)NC(=O)[C@@H]1Cc2cccc3c2N1C(=O)[C@@H](NC(=O)c1cccc2ccccc12)CC3 [Example 20]
159	8770	> 50000	> 50000	4630	204 to 205 °C (dec.)									O=C1C[C@H](NC(=O)[C@@H]2Cc3cccc4c3N2C(=O)[C@@H](NC(=O)c2ccccc2)CC4)C(O)O1 (stereo partly drawn) [Example 25]
19	1030	40100	6960	> 10000	101 to 104 °C									O=C1C[C@H](NC(=O)[C@@H]2Cc3cccc4c3N2C(=O)[C@@H](NC(=O)OCc2ccccc2)CC4)C(O)O1 (stereo partly drawn) [Example 3]
694	1.4	6470	145	2090	160 to 175 °C (dec.)									CC(=O)N[C@@H](CC(=O)O)C(=O)N[C@H]1CCc2cccc3c2N(C1=O)[C@H](C(=O)N[C@H]1CC(=O)OC1O)C3 (stereo partly drawn) [Example 7]

— patent US6444663B1, “Tricyclic compounds for the inhibition of the ICE/ced-3 protease family of enzymes” (Idun Pharmaceuticals, Inc., priority 1996, dated 2002)
